Patent EP4703359A1 (Shanghai Simr Biotechnology Co., Ltd., priority 2023, dated 2024)

Target: T1, α2-GABAA receptor (Homo sapiens, UniProt P18507+P47869)
T1 construct: expressed in transfected cells
Assay: Whole-cell patch-clamp electrophysiology, positive allosteric modulatory activity in α2-GABAAR-HEK293 cells
Type: cell-based
Conditions: compound 100 nM; GABA 0.10 to 0.11 µM (approximately EC7-8); normalized to reference compound CVL-865 (= 100%); read-out: α2-GABAAR Positive allosteric modulatory activity
Excerpt: The α subunit, β subunit, and γ subunit are indispensable for forming a fully functional GABAA receptor. In this example, HEK293 cells stably expressing α2-GABAA receptors (α2-GABAAR) were constructed and screened respectively via liposome transfection (Felgner, P.L., et al. Proceedings of the National Academy of Sciences, 1987, 84: 7413-7417). The α2-GABAAR-HEK293 cell model co-expresses the α2 subunit (protein sequence referenced under GenBank accession number: NM_000807.4), β3 subunit (protein sequence referenced under GenBank accession number: NM_000814.5), and γ2 subunit (protein sequence referenced under GenBank accession number: NM_000816.3).
The above cell lines were subcultured. α2-GABAAR-HEK293 cells were amplified for testing the affinity of compounds to the benzodiazepine (BZD) site of GABAA receptors. Some of the α2-GABAAR-HEK293 cells in suspension during subculturing were plated on glass slides pre-treated with Poly-D-Lysine for electrophysiological testing (method reference: Patent CN 107344936 A, paragraph 0586).
The positive modulatory activity of the test drug on the α2-GABAA receptor was assessed using electrophysiological methods. The specific approach is as follows:
With regards to the concentration of the compound, the final concentration of all compounds used in the screening was 100 nM. For cell lines expressing α2-GABAA receptors, the GABA concentration was 0.10 to 0.11 µM (approximately EC7-8). Electrophysiological experiments were conducted using the whole-cell patch-clamp technique, which can be referenced to the method reported in the literature (Nickolls, S. A., et al. *British Journal of Pharmacology*, 2018, 175: 708-725). The composition of the extracellular solution (ECS) for electrophysiology was as follows: 150 mM NaCl, 5 mM KCl, 2.5 mM CaCl2, 1 mM MgCl2, 10 mM HEPES, and 10 mM glucose (pH 7.4). The intracellular solution (ICS) for electrophysiology was formulated as follows: 140 mM CsCl, 11 mM EGTA, 10 mM HEPES, 2 mM CaCl2, 1 mM MgCl2, 4 mM MgATP, and 2 mM TEA (pH 7.3). GABA (γ-aminobutyric acid) powder was dissolved in pure water to prepare a stock solution, which was subsequently diluted in ECS. The compound was initially dissolved in dimethyl sulfoxide to prepare a 4 mM stock solution, followed by stepwise dilution into GABA-ECS at corresponding concentrations. All solutions were freshly prepared prior to electrophysiological testing.
Electrophysiological signals were acquired using an EPC 10 amplifier and PatchMaster software (HEKA) or an Axon 700B amplifier and Clampex software (AXON). The recording electrode was pulled from borosilicate glass, with an electrode resistance of 4 to 6 MΩ. Extracellular administration was performed using the ALA-VC-8PG™ system. A single independently growing cell was selected. After forming a tight seal between the glass electrode and the cell membrane, the membrane was ruptured to establish the whole-cell configuration. The cell membrane potential was clamped at -60 mV and recorded in Gap-free mode. During the test, extracellular fluid was first applied externally for approximately 20 seconds. After the baseline (Iprebaseline) was stabilized, the extracellular solution was switched to GABA-ECS. At this point, the current induced by GABA (Igaba) can be detected. After approximately 10 to 20 seconds, once the current had stabilized, the extracellular solution was switched to a mixture of the compound and GABA-ECS until the current induced by both the compound and GABA (Itreatment) could be detected. Finally, the solution was switched to extracellular fluid, and the recording was terminated after 20 to 40 seconds. Only cells with a stable baseline, an absolute control current magnitude (Igaba - Iprebaseline) greater than 40 pA, and a relatively stable current within 10 to 20 seconds were used for compound testing. […]

T1 sequence (P47869 29-451): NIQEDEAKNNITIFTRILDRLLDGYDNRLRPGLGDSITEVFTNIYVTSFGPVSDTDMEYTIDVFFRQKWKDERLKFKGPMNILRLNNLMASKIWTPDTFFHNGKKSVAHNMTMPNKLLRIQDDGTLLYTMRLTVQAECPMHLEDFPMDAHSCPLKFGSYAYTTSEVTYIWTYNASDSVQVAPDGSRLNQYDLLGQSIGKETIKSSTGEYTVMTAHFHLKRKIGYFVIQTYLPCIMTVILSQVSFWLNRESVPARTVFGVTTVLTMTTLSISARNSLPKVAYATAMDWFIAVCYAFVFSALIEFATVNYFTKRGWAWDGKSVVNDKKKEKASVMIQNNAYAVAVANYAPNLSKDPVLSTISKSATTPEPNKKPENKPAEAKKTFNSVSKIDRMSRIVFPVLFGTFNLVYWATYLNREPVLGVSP
T1 sequence (P18507 40-467 isoform P18507-1 limits assumed): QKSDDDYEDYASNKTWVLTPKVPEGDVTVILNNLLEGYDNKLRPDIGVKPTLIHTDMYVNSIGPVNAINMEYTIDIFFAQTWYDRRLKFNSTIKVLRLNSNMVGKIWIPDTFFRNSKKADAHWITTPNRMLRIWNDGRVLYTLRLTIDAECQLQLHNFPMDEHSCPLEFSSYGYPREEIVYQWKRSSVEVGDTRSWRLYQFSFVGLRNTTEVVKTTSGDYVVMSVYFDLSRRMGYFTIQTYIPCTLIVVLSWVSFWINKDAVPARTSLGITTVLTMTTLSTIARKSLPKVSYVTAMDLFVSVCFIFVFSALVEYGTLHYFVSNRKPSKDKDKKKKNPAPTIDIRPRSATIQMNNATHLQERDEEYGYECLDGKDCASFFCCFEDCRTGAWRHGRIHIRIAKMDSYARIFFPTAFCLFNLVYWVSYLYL
T1 sequence (P28472 26-473 partner): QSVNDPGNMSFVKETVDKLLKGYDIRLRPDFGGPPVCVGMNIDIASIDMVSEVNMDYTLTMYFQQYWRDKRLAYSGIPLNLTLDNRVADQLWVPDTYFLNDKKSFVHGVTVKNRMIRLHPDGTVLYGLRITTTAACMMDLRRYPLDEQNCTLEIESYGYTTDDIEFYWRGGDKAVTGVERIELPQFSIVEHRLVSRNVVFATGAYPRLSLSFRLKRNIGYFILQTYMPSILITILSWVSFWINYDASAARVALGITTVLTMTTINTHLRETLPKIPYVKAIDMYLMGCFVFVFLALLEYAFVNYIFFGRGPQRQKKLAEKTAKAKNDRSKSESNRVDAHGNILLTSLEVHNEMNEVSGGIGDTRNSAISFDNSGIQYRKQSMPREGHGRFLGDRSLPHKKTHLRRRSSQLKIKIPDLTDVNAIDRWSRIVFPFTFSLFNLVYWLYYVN

Emax at 0.1 µM [%] | SMILES
100 | CCn1cnc2c(-c3ccc(F)c(-c4ccc(S(=O)(=O)CC)cc4OC)c3)cnnc21 [CVL-865, reference compound]
35 | CCNC(=O)c1nc2c(-c3c(F)cccc3OC)cccn2c1N [Example 2, 3-Amino-8-(2-fluoro-6-methoxyphenyl)-N-ethylimidazo[1,2-a]pyridine-2-carboxamide]
27 | COc1cccc(F)c1-c1cccn2c(N)c(C(=O)NC34CC(C3)C4)nc12 [Example 11, 3-Amino-N-(bicyclo[1.1.1]pent-1-yl)-8-(2-fluoro-6-methoxyphenyl)imidazo[1,2-a]pyridine-2-carboxamide]
54 | COc1cccc(F)c1-c1cccn2c(N)c(C(=O)Nc3ccccn3)nc12 [Example 14, 3-Amino-8-(2-fluoro-6-methoxyphenyl)-N-(pyridin-2-yl)imidazo[1,2-a]pyridine-2-carboxamide]
61 | COc1cccc(F)c1-c1cccn2c(N)c(C(=O)Nc3cnn(C)c3)nc12 [Example 15, 3-Amino-8-(2-fluoro-6-methoxyphenyl)-N-(1-methyl-1H-pyrazol-4-yl)imidazo[1,2-a]pyridine-2-carboxamide]
35 | COc1cccc(F)c1-c1cccn2c(N)c(C(=O)NCc3ccccn3)nc12 [Example 20, 3-Amino-8-(2-fluoro-6-methoxyphenyl)-N-(pyridin-2-methyl)imidazo[1,2-a]pyridine-2-carboxamide]
43 | COc1cccc(F)c1-c1cccn2c(N)c(C(=O)NCCc3ccccc3)nc12 [Example 21, 3-Amino-8-(2-fluoro-6-methoxyphenyl)-N-phenethylimidazo[1,2-a]pyridine-2-carboxamide]
25 | COc1cccc(F)c1-c1cccn2c(N)c(C(=O)NCCO)nc12 [Example 22, 3-Amino-8-(2-fluoro-6-methoxyphenyl)-N-(2-hydroxyethyl)imidazo[1,2-a]pyridine-2-carboxamide]
57 | COc1cccc(F)c1-c1cccn2c(N)c(C(=O)NCCCO)nc12 [Example 23, 3-Amino-8-(2-fluoro-6-methoxyphenyl)-N-(3-hydroxypropyl)imidazo[1,2-a]pyridine-2-carboxamide]
39 | COCCNC(=O)c1nc2c(-c3c(F)cccc3OC)cccn2c1N [Example 24, 3-Amino-8-(2-fluoro-6-methoxyphenyl)-N-(2-methoxyethyl)imidazo[1,2-a]pyridine-2-carboxamide]
81 | C=CCNC(=O)c1nc2c(-c3c(F)cccc3OC)cccn2c1N [Example 30, N-Allyl-3-amino-8-(2-fluoro-6-methoxyphenyl)imidazo[1,2-a]pyridine-2-carboxamide]
26 | C#CCNC(=O)c1nc2c(-c3c(F)cccc3OC)cccn2c1N [Example 31, N-Propargyl-3-amino-8-(2-fluoro-6-methoxyphenyl)imidazo[1,2-a]pyridine-2-carboxamide]
50 | CCCNC(=O)c1nc2c(-c3cccc(/C(C)=N/OC)c3)cccn2c1N [Example 38, (E)-3-Amino-8-(3-(1-(methoxyimino)ethyl)phenyl)-N-propylimidazo[1,2-a]pyridine-2-carboxamide]
25 | CC#Cc1cccc(-c2cccn3c(N)c(C(=O)NCCC)nc23)c1 [Example 40, 3-Amino-8-(3-(prop-1-yn-1-yl)phenyl)-N-propylimidazo[1,2-a]pyridine-2-carboxamide]
30 | CCCNC(=O)c1nc2c(-c3cccc(N4CCOC4=O)c3)cccn2c1N [Example 41, 3-Amino-8-(3-(2-oxooxazolidin-3-yl)phenyl)-N-propylimidazo[1,2-a]pyridine-2-carboxamide]
31 | CCCNC(=O)c1nc2c(-c3cccc(-c4ccnnc4)c3)cccn2c1N [Example 44]

Emax at 0.1 µM [%] | SMILES
36 | CCCNC(=O)c1nc2c(-c3c(F)cccc3COC)cccn2c1N [Example 65, 3-Amino-8-(2-fluoro-6-(methoxymethyl)phenyl)-N-propylimidazo[1,2-a]pyridine-2-carboxamide]
64 | CCCNC(=O)c1nc2c(-c3c(C#N)cccc3OC)cccn2c1N [Example 73, 3-Amino-8-(2-cyano-6-methoxyphenyl)-N-propylimidazo[1,2-a]pyridine-2-carboxamide]
73 | CCCNC(=O)c1nc2c(-c3c(F)cccc3SC)cccn2c1N [Example 74, 3-Amino-8-(2-fluoro-6-(methylthio)phenyl)-N-propylimidazo[1,2-a]pyridine-2-carboxamide]
101 | CCCNC(=O)c1nc2c(-c3c(F)cccc3OC(F)(F)F)cccn2c1N [Example 75, 3-Amino-8-(2-fluoro-6-(trifluoromethoxy)phenyl)-N-propylimidazo[1,2-a]pyridine-2-carboxamide]
77 | CCCNC(=O)c1nc2c(-c3c(F)ccc(Cl)c3OC)cccn2c1N [Example 80, 3-Amino-8-(2-fluoro-6-methoxyphenyl-5-chloro)-N-propylimidazo[1,2-a]pyridine-2-carboxamide]
48 | CCCNC(=O)c1nc2c(-c3cnc(OC)nc3OC)cccn2c1N [Example 81, 3-Amino-8-(2,4-dimethoxypyrimidin-5-yl)-N-propylimidazo[1,2-a]pyridine-2-carboxamide]
73 | CCCNC(=O)c1nc2c(-c3ccnc(C)c3)cccn2c1N [Example 86, 3-Amino-8-(2-methylpyridin-4-yl)-N-propylimidazo[1,2-a]pyridine-2-carboxamide]
48 | CCCNC(=O)c1nc2c(-c3cncc(C)c3)cccn2c1N [Example 87, 3-Amino-8-(5-methylpyridin-3-yl)-N-propylimidazo[1,2-a]pyridine-2-carboxamide]
63 | CCCNC(=O)c1nc2c(-c3cncc(C#N)c3)cccn2c1N [Example 88, 3-Amino-8-(5-cyanopyridin-3-yl)-N-propylimidazo[1,2-a]pyridine-2-carboxamide]
44 | CCCNC(=O)c1nc2c(-c3ccnc(C#N)c3)cccn2c1N [Example 89, 3-Amino-8-(2-cyanopyridin-4-yl)-N-propylimidazo[1,2-a]pyridine-2-carboxamide]
60 | CCCNC(=O)c1nc2c(-c3cccnc3F)cccn2c1N [Example 90, 3-Amino-8-(2-fluoropyridin-3-yl)-N-propylimidazo[1,2-a]pyridine-2-carboxamide]
33 | CCCNC(=O)c1nc2c(-c3cc4c(cc3OC)N(C)CCO4)cccn2c1N [Example 92, 3-Amino-8-(6-methoxy-4-methyl-3,4-dihydro-2H-benzo[b][1,4]oxazin-7-yl)-N-propylimidazo[1,2-a]pyridine-2-carboxamide]
62 | CCCNC(=O)c1nc2c(-c3cc4oc(=O)n(C)c4cc3OC)cccn2c1N [Example 93, 3-Amino-8-(5-methoxy-3-methyl-2-oxo-2,3-dihydrobenzo[d]oxazol-6-yl)-N-propylimidazo[1,2-a]pyridine-2-carboxamide]
51 | CCCNC(=O)c1nc2c(-c3cn4ccnc4cc3OC)cccn2c1N [Example 94, 3'-Amino-7-methoxy-N-propyl-[6,8'-diimidazo[1,2-a]pyridine]-2'-carboxamide]
27 | CCCNC(=O)c1nc2c(-c3cc4cnn(C)c4cc3OC)cccn2c1N [Example 95, 3-Amino-8-(6-methoxy-1-methyl-1H-indazol-5-yl)-N-propylimidazo[1,2-a]pyridine-2-carboxamide]
